For six molecules, IC50 results are on record in US6887873B2, “Triazine derivatives and their application as antitelomerase agents” (Aventis Pharma S.A., priority 2001, dated 2005).

Assay [1] concerns human telomerease (HL60 cell extract). Kind of assay: Antitelomerease activity: extension of oligonucleotide TS followed by PCR amplification, with HL60 extract. The assay is classed as biochemical. Particulars: read-out: TRAP IC50. The procedure, abridged: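 HL60 CHAPS-lysate extract extends TS primer (15 min, 30 °C) with compound at 10, 1, 0.1 and 0.01 µM, followed by 30-cycle PCR with TS and CXext. Products resolved on 12% acrylamide and quantified; % inhibition versus enzyme control and blank, IC50 read from semilog plot.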

A further assay relates to A549 cells. Kind of assay: Cytotoxic activity on human tumour line A549, neutral red, 96 hours. The assay is classed as cell-based. Particulars: Homo sapiens, A549, A549; read-out: Cytotox. A549 IC50. Here is the method:
The cytotoxic biological activity on human tumour lines is determined according to the following experimental protocol:
The human cell lines A549 are obtained from ATCC (American Type Culture Collection, Rockville, USA). The A549 cells are cultured in a layer in a culture flask in RPMI 1640 medium containing L-glutamine at 2 mM, penicillin 200 U/ml, streptomycin 200 μg/ml and supplemented with 10% heat-inactivated foetal calf serum. The KB cells are cultured in a layer in a culture flask in Dulbelco's medium containing L-glutamine at 2 mM, penicillin 200 U/ml, streptomycin 200 μg/ml and supplemented with 10% heat-inactivated foetal calf serum.
The cells at the exponential growth phase are trypsinized, washed in 1×PBS and are inoculated in 96-well microplates (Costar) in an amount of 4×10^4 cells/ml for A549 and of 1.5×10^4 cells/ml (0.2 ml/well) and then incubated for 96 hours in the presence of variable concentrations of product to be studied (10, 1, 0.1 and 0.01 μM, each point in quadruplicate). 16 hours before the end of the incubation, 0.02% final of neutral red is added to each well. At the end of the incubation, the cells are washed with 1×PBS and lysed with 1% sodium lauryl sulphate. The cellular incorporation of the dye, which reflects cellular growth, is evaluated by spectro-photometry at a wavelength of 540 nm for each sample with the aid of a Dynatech MR5000 reading apparatus.
For each compound concentration tested, the results are expressed as percentage of inhibition of cellular growth and calculated from the untreated control and the culture medium free of cells (blank) according to the following formula: (compound value−blank value/cell control value−blank value)×100.
The concentration of compound inducing a 50% inhibition of growth (IC50) is determined with the aid of a semilogarithmic graphical representation of the inhibition values obtained as a function of each of the compound concentrations tested.
A compound is considered to be active as cytotoxic agent if the concentration inhibiting the growth of the tumour cells tested by 50% is in particular less than 10 μM.

Each structure is given as a SMILES string.

The term IC50 denotes the midpoint of a concentration-inhibition curve. For the molecule `Cc1cc(N)c2cc(Nc3nc(Nc4ccc5nc(C)cc(N)c5c4)nc(N4CCN(c5ccc6ccccc6n5)CC4)n3)ccc2n1` [Example 71], the IC50 is 0.35 µM in assay [1] and 12.4 µM in the assay with A549 cells. In the same order, the values of `COc1ccc(CNc2nc(Nc3ccc4nc(C)cc(N)c4c3)nc(Nc3ccc4nc(C)cc(N)c4c3)n2)cc1` [Example 83] are 1.2 µM and 14 µM. `Cc1cc(N)c2cc(Nc3nc(NCc4ccc(N(C)C)cc4)nc(Nc4ccc5nc(C)cc(N)c5c4)n3)ccc2n1` [Example 85]: the concentration for half-maximal inhibition (IC50) in assay [1] turned out to be 3.9 µM; in the assay with A549 cells, 16 µM.

With `Cc1cc(N)c2cc(Nc3nc(Nc4ccc5nc(C)cc(N)c5c4)nc(Nc4ccccn4)n3)ccc2n1` [Example 89], the values for the half-maximal inhibitory concentration (IC50) (in assay [1]; in the assay with A549 cells) were 1.2 µM and 20 µM, respectively. `Cc1cc(N)c2cc(Nc3nc(Nc4ccc5nc(C)cc(N)c5c4)nc(Sc4ccccc4)n3)ccc2n1` [Example 117]: the half-maximal inhibitory concentration (IC50) with A549 cells was 19.5 µM. Turning to `Cc1cc(N(C)C)c2cc(Nc3nc(Nc4ccc5nc(C)cc(N(C)C)c5c4)nc(-c4ccccc4)n3)ccc2n1` [Example 134, 2,4-bis(4-dimethylamino-2-methylquinolin-6-yl)amino-6-phenyl-[1,3,5]triazine], the IC50 in the assay on A549 cells is 0.88 µM.
